Data from BindingDB's records for doi:10.1111/j.1476-5381.1995.tb15922.x (Syntex Discovery Research, 1995).

Tests used:
[1] = target: T1, Type-1 angiotensin II receptor (Xenopus tropicalis, UniProt B3DLC0)
T1 sequence (B3DLC0 whole entry): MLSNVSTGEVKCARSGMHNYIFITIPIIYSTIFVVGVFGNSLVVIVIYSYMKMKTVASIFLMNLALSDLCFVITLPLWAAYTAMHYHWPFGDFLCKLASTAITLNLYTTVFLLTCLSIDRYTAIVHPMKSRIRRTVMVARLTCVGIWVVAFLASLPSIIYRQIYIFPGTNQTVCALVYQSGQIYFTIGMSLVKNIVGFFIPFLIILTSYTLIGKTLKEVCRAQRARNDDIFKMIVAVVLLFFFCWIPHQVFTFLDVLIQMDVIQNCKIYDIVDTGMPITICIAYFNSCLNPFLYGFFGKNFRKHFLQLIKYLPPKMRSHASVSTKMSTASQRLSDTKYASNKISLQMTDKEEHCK

[2] = target: T2, 5-hydroxytryptamine receptor 2C (Homo sapiens, UniProt P28335)
T2 sequence (P28335 whole entry): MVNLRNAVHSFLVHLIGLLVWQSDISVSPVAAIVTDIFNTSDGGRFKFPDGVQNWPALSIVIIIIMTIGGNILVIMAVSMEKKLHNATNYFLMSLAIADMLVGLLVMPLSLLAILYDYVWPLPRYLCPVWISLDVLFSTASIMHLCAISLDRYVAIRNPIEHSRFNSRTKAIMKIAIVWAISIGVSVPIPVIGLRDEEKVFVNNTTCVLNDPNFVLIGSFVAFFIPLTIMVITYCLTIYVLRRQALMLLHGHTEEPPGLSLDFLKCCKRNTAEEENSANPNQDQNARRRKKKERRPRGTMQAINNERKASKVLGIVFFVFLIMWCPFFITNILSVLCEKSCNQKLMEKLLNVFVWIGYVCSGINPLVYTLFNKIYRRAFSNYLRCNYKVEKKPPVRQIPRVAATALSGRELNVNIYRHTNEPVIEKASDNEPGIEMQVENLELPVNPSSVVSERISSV

[3] = target: 5-hydroxytryptamine receptor 4 (Cavia porcellus, UniProt O70528)
[4] = target: Glutamate receptor ionotropic, NMDA 1 (Rattus norvegicus, UniProt P35439)
[5] = target: T3, Muscarinic acetylcholine receptor M2 (Homo sapiens, UniProt P08172)
T3 sequence (P08172 whole entry): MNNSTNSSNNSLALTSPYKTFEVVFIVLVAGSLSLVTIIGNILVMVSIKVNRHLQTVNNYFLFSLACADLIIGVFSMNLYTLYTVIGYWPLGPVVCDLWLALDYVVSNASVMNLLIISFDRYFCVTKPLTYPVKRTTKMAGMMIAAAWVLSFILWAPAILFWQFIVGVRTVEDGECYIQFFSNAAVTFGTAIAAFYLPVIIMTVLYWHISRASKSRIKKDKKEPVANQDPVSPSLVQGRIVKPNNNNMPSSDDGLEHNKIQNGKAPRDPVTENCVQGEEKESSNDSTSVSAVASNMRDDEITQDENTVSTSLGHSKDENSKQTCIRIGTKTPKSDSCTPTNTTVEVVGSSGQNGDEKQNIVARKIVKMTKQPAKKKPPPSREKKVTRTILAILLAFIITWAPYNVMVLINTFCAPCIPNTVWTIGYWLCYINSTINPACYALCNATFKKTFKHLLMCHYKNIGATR

[6] = target: T4, B1 bradykinin receptor (Homo sapiens, UniProt P46663)
T4 sequence (P46663 whole entry): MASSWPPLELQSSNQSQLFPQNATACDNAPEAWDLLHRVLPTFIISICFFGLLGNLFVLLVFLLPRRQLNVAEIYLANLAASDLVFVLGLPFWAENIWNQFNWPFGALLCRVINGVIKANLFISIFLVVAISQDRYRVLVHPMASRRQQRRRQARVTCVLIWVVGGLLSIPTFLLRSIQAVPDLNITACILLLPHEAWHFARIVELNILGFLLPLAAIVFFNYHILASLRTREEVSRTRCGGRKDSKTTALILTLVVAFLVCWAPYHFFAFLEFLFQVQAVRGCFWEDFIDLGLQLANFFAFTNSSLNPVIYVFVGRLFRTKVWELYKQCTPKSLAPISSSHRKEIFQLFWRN

[7] = target: Mu-type opioid receptor (Rattus norvegicus, UniProt P33535)
[8] = target: T5, Muscarinic acetylcholine receptor M1 (Homo sapiens, UniProt P11229)
T5 sequence (P11229 whole entry): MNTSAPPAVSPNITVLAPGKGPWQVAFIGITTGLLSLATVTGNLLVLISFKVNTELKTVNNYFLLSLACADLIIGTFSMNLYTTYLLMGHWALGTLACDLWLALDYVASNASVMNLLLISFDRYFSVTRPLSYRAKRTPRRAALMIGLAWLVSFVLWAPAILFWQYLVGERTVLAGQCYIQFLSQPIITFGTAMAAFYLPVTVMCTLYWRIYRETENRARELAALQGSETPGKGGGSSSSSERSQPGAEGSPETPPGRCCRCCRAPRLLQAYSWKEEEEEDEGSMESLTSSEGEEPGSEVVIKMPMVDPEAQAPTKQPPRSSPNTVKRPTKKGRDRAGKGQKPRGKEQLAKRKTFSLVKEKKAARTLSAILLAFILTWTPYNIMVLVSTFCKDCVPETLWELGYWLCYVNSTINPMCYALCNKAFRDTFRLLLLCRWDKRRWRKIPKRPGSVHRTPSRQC

[9] = target: T6, 5-hydroxytryptamine receptor 3A (Homo sapiens, UniProt P46098)
T6 sequence (P46098 whole entry): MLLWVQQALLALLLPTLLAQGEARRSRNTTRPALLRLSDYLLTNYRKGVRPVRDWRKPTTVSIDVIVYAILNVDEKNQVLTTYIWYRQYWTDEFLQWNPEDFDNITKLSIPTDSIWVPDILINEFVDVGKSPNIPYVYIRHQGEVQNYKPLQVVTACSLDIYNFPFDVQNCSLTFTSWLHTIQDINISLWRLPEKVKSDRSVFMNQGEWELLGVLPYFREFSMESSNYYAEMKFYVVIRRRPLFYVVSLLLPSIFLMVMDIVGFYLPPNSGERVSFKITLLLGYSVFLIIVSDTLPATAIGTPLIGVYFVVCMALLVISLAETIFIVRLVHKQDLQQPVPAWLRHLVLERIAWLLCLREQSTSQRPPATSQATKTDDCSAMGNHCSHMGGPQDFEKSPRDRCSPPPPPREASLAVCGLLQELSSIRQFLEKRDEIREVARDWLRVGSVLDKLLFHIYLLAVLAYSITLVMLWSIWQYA

[10] = target: D(2) dopamine receptor (Homo sapiens, UniProt P14416)
[11] = target: T7, Alpha-1A adrenergic receptor (Homo sapiens, UniProt P35348)
T7 sequence (P35348 whole entry): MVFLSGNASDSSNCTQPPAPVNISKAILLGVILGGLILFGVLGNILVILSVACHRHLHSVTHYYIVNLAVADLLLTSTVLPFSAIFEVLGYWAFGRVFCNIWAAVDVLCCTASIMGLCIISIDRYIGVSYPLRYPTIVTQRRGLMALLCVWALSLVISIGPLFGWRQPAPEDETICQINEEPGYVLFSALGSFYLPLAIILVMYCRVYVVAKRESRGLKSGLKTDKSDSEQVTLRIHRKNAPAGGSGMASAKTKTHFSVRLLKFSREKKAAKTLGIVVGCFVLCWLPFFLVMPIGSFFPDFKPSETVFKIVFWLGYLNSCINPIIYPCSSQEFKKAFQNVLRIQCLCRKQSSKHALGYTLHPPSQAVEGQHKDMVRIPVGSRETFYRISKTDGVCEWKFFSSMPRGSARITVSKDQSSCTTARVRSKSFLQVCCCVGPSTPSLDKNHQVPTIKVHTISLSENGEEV

[12] = target: D(1A) dopamine receptor (Homo sapiens, UniProt P21728)
D(1A) dopamine receptor, sequence (P21728 whole entry): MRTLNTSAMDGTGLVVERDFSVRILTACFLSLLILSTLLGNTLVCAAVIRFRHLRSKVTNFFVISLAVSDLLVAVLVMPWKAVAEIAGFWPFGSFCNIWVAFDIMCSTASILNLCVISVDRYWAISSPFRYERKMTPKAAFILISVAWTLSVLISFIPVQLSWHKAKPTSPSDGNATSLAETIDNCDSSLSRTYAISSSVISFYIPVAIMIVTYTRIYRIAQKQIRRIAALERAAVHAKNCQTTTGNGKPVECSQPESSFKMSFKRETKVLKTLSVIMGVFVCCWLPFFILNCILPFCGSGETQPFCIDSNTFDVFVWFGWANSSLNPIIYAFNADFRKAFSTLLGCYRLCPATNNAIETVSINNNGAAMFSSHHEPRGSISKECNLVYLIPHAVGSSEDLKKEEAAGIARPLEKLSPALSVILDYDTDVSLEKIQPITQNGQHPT

5-hydroxytryptamine receptor 4, sequence (O70528 whole entry): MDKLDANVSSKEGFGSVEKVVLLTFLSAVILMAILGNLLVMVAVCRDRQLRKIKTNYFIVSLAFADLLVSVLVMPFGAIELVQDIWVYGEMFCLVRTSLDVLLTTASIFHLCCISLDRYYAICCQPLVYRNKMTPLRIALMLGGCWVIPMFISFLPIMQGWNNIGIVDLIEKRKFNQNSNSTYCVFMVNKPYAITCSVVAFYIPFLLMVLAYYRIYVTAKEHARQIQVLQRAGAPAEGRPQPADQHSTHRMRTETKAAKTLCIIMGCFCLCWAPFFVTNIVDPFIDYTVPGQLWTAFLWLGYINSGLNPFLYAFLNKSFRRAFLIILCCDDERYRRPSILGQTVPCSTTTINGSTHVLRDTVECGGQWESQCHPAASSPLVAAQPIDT
D(2) dopamine receptor, sequence (P14416 whole entry): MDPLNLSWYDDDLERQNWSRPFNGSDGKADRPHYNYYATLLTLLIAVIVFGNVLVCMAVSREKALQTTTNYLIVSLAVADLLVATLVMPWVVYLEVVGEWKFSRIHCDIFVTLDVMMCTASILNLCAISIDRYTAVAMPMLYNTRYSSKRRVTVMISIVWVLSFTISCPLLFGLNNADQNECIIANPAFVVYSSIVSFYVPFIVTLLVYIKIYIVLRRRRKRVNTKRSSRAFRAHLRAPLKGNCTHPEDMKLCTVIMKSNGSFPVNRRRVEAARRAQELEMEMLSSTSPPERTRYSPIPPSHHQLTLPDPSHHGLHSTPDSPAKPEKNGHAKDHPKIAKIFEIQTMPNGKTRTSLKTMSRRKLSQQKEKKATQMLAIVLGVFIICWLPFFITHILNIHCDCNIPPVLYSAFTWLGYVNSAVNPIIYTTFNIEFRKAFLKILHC
Mu-type opioid receptor, sequence (P33535 whole entry): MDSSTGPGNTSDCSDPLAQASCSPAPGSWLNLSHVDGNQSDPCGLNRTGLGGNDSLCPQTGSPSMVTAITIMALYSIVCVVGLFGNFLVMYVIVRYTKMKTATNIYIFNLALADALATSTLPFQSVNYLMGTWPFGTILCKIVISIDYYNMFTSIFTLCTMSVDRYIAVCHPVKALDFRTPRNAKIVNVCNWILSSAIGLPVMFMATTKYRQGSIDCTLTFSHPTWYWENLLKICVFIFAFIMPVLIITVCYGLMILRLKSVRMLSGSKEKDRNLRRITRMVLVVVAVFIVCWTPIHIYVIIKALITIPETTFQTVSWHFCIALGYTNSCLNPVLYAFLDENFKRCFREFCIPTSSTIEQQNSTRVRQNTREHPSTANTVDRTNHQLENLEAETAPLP

## COc1cc(COc2cc(N)c(Cl)cc2C(=O)CCC2CCN(CCNS(C)(=O)=O)CC2)cc(OC)c1 [CAS_167710-87-4]
[1]
  Ki: > 10000 nM
[2]
  Ki: 794 nM
[3]
  Ki: 0.79 nM
[4]
  Ki: 1000 nM
[5]
  Ki: 1000 nM
[6]
  Ki: > 10000 nM
[7]
  Ki: 1000 nM
[8]
  Ki: 1000 nM
[9]
  Ki: 1000 nM
[10]
  Ki: 1000 nM
[11]
  Ki: 398 nM
[12]
  Ki: 1000 nM
